Results on twelve molecules are retold here after patent publication US20230312550A1, “N-(2-(4-CYANOTHIAZOLIDIN-3-YL)-2-OXOETHYL)-QUINOLINE-4-CARBOXAMIDES” (AstraZeneca AB, priority 2020, published 2023).

Series [1] deals with Prolyl endopeptidase, Prolyl Oligopeptidase (hPREP) (Homo sapiens (Human), UniProt P48147). Briefly: hPrep inhibition assay. The class given is biochemical. To be noted: hPREP 0.6 nM, Z-Gly-Pro-amino-methylcoumarin 50 μM; read-out: PREP IC50. The procedure, abridged: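 Fluorogenic read-out (340 nm excitation, 460 nm emission) after 20 min at rt, using 50 μM final Z-Gly-Pro-aminomethylcoumarin and 0.6 nM final enzyme, following 15 min compound preincubation. Buffer pH 7.5 with glutathione and Triton X-100. IC50 via one-site model on % inhibition vs log concentration.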

The nature of series [2]: Caco-2 cell permeability. To be noted: human. A general note: Caco-2 monolayers are a common model of the intestinal barrier.
Experimental: Caco-2 cell permeability was measured as described in Mol Pharm 2017, 14, 1601.
Series [3] can be described thus: Metabolic stability in human liver microsomes (HLM). To be noted: human, HLM CLint, n = 1 or average of n = 2-3. (In general: Liver microsomes are vesicles of endoplasmic reticulum, rich in cytochrome P450 enzymes.)
Experimental: Metabolic stability in HLM was measured as described in J Comput Aided Mol Des 2015, 29, 795.
Series [4] in a line: Kinetic solubility. To be noted: kinetic from dmso stock, Solubility, kinetic solubility; n = 1 or average of n = 2-3.
Experimental: Kinetic solubility was measured as described in Comput Aided Mol Des 2015, 29, 795.
The target in series [5] is hFAP (M39-A757) (Homo sapiens (Human), UniProt Q12884). Put plainly: hFAP binding assay (surface plasmon resonance). To be noted: SPR, 20° C.; for hFAP Binding assay k(off) / hFAP Binding assay k(on): single cycle kinetics; for pKd: n = 1 or geometric mean n = 2-4. On the technique in general: Surface plasmon resonance follows binding to a sensor surface in real time, without labels.
Experimental: Compounds were tested in a direct binding assay using 8K surface plasmon resonance biosensor (GE Healthcare) at 20° C. Immobilization of hFAP (M39-A757) on a CMD200M sensor chip (Xantec) was performed using standard amine coupling procedure in immobilization buffer (10 mM HEPES, 150 mM NaCl, 0.05% Tween20, pH 7.4). The surface was washed with 10 mM NaOH, 1M NaCl before being activated with EDC/NHS (GE Healthcare), followed by immobilization of hFAP (in 10 mM Acetate pH 5.0). Finally, the surface was deactivated by ethanolamine. Immobilization levels of hFAP were around 4000-6000 RU. The reference spot was treated as described, omitting the injection of hFAP. Compound concentration series were injected over the immobilized protein in increasing concentrations (2-500 nM) using single cycle kinetics in running buffer (20 mM TRIS, 150 mM NaCl, 0.05% Tween20, 1% DMSO, pH 7.4). Interaction models were fitted globally to the experimental traces, enabling determination of kon, koff and Kd.

The nature of series [6]: Metabolic stability in rat hepatocytes (rHep). To be noted: n = 1 or geometric mean of n = 2-3.
Series [7] concerns the target human Fibroblast activation protein alpha (hFAP) (Homo sapiens (Human), UniProt Q12884). Briefly: hFAP inhibition assay (tight binders). Also: hFAP 2.4 pM. It counts as biochemical. To be noted: Ala-Pro-AMC 20 μM, n = 1 or geometric mean n = 2-6. The method, then:
The plates were read on a PHERAstar® reader with excitation 340 nm and emission 460 nm. Data were analyzed in Genedata Screener®. IC50 values were determined by plotting % inhibition versus log compound concentration and using a one site dose response model.

pIC50, pKd: −log10 of the molar value. Converted amounts (≈) assume the structure as drawn. Bounds are passed on as bounds.

Sequence of human Fibroblast activation protein alpha (hFAP) (Q12884 38-760): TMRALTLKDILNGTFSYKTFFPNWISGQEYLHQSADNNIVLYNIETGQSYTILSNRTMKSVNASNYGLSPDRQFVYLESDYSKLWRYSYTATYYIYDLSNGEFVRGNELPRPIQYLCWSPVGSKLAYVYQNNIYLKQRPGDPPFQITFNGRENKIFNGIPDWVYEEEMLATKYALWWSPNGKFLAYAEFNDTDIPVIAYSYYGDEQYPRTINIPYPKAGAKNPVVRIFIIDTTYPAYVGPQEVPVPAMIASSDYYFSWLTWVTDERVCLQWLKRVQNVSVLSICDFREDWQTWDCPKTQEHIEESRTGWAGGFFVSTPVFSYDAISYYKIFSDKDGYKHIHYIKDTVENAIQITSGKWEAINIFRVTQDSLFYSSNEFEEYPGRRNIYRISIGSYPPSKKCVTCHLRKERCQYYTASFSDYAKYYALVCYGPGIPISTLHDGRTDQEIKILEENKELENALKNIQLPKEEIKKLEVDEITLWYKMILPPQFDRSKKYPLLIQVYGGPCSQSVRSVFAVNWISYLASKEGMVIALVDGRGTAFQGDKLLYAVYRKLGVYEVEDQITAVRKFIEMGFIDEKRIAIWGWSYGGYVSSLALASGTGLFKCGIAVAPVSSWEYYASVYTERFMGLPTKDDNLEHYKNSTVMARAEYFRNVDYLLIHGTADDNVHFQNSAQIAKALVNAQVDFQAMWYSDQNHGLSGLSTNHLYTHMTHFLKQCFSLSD
Sequence of hFAP (M39-A757) (Q12884 39-757): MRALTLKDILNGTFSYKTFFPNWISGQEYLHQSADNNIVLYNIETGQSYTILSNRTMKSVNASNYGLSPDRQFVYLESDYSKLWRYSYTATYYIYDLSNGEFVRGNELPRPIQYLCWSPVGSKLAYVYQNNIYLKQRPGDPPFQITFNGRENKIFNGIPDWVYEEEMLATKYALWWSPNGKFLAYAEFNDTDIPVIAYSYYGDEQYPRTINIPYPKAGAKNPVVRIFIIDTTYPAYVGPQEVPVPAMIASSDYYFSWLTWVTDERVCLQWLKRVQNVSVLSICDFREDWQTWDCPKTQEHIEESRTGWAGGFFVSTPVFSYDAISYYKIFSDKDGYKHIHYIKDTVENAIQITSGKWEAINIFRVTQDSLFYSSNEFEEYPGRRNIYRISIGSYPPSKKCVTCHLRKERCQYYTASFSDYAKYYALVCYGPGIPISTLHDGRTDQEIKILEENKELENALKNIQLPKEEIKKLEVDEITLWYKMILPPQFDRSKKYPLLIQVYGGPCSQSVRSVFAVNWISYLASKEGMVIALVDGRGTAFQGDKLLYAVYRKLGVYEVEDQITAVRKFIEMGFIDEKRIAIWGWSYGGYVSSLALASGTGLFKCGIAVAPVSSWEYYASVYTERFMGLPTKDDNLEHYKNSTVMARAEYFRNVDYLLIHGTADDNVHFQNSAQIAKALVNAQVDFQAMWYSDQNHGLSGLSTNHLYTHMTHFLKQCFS
Sequence of Prolyl endopeptidase, Prolyl Oligopeptidase (hPREP) (P48147 whole entry): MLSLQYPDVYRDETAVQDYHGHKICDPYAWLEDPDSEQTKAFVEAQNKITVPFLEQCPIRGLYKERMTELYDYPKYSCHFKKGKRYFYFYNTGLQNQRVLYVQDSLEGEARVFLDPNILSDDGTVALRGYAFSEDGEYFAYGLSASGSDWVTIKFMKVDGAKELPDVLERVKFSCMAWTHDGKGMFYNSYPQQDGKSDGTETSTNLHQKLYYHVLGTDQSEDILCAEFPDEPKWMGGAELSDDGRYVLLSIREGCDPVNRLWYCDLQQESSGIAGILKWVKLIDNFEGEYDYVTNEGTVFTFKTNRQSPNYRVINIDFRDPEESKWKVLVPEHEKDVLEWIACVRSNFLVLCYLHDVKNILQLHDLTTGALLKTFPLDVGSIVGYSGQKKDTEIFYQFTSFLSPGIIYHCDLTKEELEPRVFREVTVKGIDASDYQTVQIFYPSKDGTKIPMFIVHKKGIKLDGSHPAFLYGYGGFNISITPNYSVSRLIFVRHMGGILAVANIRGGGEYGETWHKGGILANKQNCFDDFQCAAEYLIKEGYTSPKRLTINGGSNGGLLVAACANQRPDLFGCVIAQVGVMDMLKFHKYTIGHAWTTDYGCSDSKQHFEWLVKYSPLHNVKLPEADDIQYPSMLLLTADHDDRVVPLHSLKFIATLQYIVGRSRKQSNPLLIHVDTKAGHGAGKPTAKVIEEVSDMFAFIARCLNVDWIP

`C[C@]1(F)CCN(c2ccc3nccc(C(=O)NCC(=O)N4CSC[C@H]4C#N)c3c2)C1` (mixture of isomers) [Example 198, N-(2-((R)-4-Cyanothiazolidin-3-yl)-2-oxoethyl)-6-((RS)-3-fluoro-3-methylpyrrolidin-1-yl)quinoline-4-carboxamide]: in series [1], the pIC50 was 6.39. Further, in series [2], the apical-to-basolateral permeability (Papp A→B) was 3.4 ×10⁻⁶ cm/s, the Papp B→A is 36 ×10⁻⁶ cm/s and the efflux ratio worked out at 11. The same molecule registered a microsomal CLint in series [3] of 20 µL/min/mg. This molecule yielded a solubility in series [4] of 38 µM. In series [5], the “hFAP Binding assay k(off)” value was 0.00011 s⁻¹, the “hFAP Binding assay k(on)” value was 2900000 M⁻¹ s⁻¹ and the pKd is 10.42. Moreover, in series [6], the “rHep CLint” value came out at 22 μL/min/1E6. The molecule further gave a pIC50 in series [7] of 10.25.

On to `N#C[C@@H]1CSCN1C(=O)CNC(=O)c1ccnc2ccc(N3C[C@H](O)C(F)(F)C3)cc12` (mixture of isomers) [Example 224, N-(2-((R)-4-Cyanothiazolidin-3-yl)-2-oxoethyl)-6-((RS)-3,3-difluoro-4-hydroxypyrrolidin-1-yl)quinoline-4-carboxamide], for which, in series [1], the pIC50 was 6.17. In series [2], this molecule came in with a Papp of 1.2 ×10⁻⁶ cm/s. Besides, the microsomal CLint in series [3] was less than 3 µL/min/mg. In addition, the solubility in series [4] worked out at 50 µM. In series [5], the “hFAP Binding assay k(off)” value stood at 0.000068 s⁻¹, the “hFAP Binding assay k(on)” value was 3000000 M⁻¹ s⁻¹ and the negative logarithm of the Kd (pKd) was 10.64. In series [6], the “rHep CLint” value is less than 1 μL/min/1E6. The same molecule showed a negative-log IC50 (pIC50) in series [7] of 10.14.

`C[C@H]1CCN(c2ccc3nccc(C(=O)NCC(=O)N4CSC[C@H]4C#N)c3c2)C1=O` (single isomer, unassigned) [Example 201, N-(2-((R)-4-Cyanothiazolidin-3-yl)-2-oxoethyl)-6-((R*)-3-methyl-2-oxopyrrolidin-1-yl)quinoline-4-carboxamide]: the pIC50 in series [1] was 6.21. This molecule also had an apparent permeability coefficient (Papp) in series [2] of 4.8 ×10⁻⁶ cm/s. The molecule also gave a microsomal CLint in series [3] of less than 3 µL/min/mg. The molecule also had a solubility in series [4] of 90 µM (≈ 38.1 µg/mL). Further, in series [5], the “hFAP Binding assay k(off)” value was 0.00010 s⁻¹, the “hFAP Binding assay k(on)” value is 1800000 M⁻¹ s⁻¹ and the pKd is 10.23. Also, in series [6], the “rHep CLint” value is reported as less than 1 μL/min/1E6. The negative logarithm of the IC50 (pIC50) in series [7] was greater than 10.60.

Regarding `C[C@@H]1CCN(c2ccc3nccc(C(=O)NCC(=O)N4CSC[C@H]4C#N)c3c2)C1=O` (single isomer, unassigned) [Example 202, N-(2-((R)-4-Cyanothiazolidin-3-yl)-2-oxoethyl)-6-((R*)-3-methyl-2-oxopyrrolidin-1-yl)quinoline-4-carboxamide], in series [1], the pIC50 is 6.26. For the same molecule, in series [2], the Papp was found to be 5.2 ×10⁻⁶ cm/s. Besides, the microsomal CLint in series [3] worked out at 7.7 µL/min/mg. This molecule also displayed a solubility in series [4] of 140 µM (≈ 59.3 µg/mL). Moreover, in series [5], the “hFAP Binding assay k(off)” value stood at 0.000070 s⁻¹, the “hFAP Binding assay k(on)” value was 1600000 M⁻¹ s⁻¹ and the pKd was 10.37. The “rHep CLint” value in series [6] was less than 1 μL/min/1E6. The molecule further gave a pIC50 in series [7] of 10.36.

Take `N#C[C@@H]1CSCN1C(=O)CNC(=O)c1ccnc2ccc(N3CCOC(F)(F)C3)cc12` [Example 4, (R)—N-(2-(4-Cyanothiazolidin-3-yl)-2-oxoethyl)-6-(2,2-difluoromorpholino)-quinoline-4-carboxamide]: the pIC50 in series [1] was 5.96. Moreover, in series [2], the apical-to-basolateral permeability (Papp A→B) turned out to be 1.6 ×10⁻⁶ cm/s, the Papp B→A turned out to be 28 ×10⁻⁶ cm/s and the efflux ratio was determined as 18. In series [3], this molecule returned a microsomal CLint of 50 µL/min/mg. The molecule also registered a solubility in series [4] of 55 µM (≈ 24.6 µg/mL). For the same molecule, in series [5], the “hFAP Binding assay k(off)” value was 0.000094 s⁻¹, the “hFAP Binding assay k(on)” value stood at 1200000 M⁻¹ s⁻¹ and the pKd is 10.10. Besides, the “rHep CLint” value in series [6] came to 14 μL/min/1E6. In series [7], this molecule had a pIC50 of 10.24.

Take `N#C[C@@H]1CSCN1C(=O)CNC(=O)c1ccnc2ccc(N3CC(F)(F)OC(F)(F)C3)cc12` [Example 5, (R)—N-(2-(4-Cyanothiazolidin-3-yl)-2-oxoethyl)-6-(2,2,6,6-tetrafluoromorpholino)quinoline-4-carboxamide]: the pIC50 in series [1] is 6.66. In series [2], the apical-to-basolateral permeability (Papp A→B) turned out to be 1.9 ×10⁻⁶ cm/s, the Papp B→A worked out at 32 ×10⁻⁶ cm/s and the efflux ratio came to 17. The molecule further yielded a microsomal CLint in series [3] of 93 µL/min/mg. The same molecule registered a solubility in series [4] of 11 µM (≈ 5.32 µg/mL). In series [5], the pKd was 10.31. For the same molecule, the “rHep CLint” value in series [6] was found to be 32 μL/min/1E6. The pIC50 in series [7] is 10.22.

Take `C[C@@H]1CN(c2ccc3nccc(C(=O)NCC(=O)N4CSC[C@H]4C#N)c3c2)C[C@H](C)[C@@H]1O` [Example 7, N-(2-((R)-4-Cyanothiazolidin-3-yl)-2-oxoethyl)-6-((3S,4S,5R)-4-hydroxy-3,5-dimethylpiperidin-1-yl)quinoline-4-carboxamide]: the pIC50 in series [1] is 6.29. Moreover, in series [2], the Papp A→B worked out at 0.34 ×10⁻⁶ cm/s, the basolateral-to-apical permeability (Papp B→A) came to 20 ×10⁻⁶ cm/s and the efflux ratio was found to be 59. The molecule also gave a microsomal CLint in series [3] of 31 µL/min/mg. In series [4], this molecule had a solubility greater than 1000 µM. Further, in series [5], the “hFAP Binding assay k(off)” value worked out at 0.000075 s⁻¹, the “hFAP Binding assay k(on)” value is 740000 M⁻¹ s⁻¹ and the pKd is 10.00. Further, the “rHep CLint” value in series [6] came to 2.6 μL/min/1E6. In series [7], this molecule gave a pIC50 of 9.80.

On to `CC1(C)CCN(c2ccc3nccc(C(=O)NCC(=O)N4CSC[C@H]4C#N)c3c2)C1=O` [Example 12, (R)—N-(2-(4-Cyanothiazolidin-3-yl)-2-oxoethyl)-6-(3,3-dimethyl-2-oxopyrrolidin-1-yl)quinoline-4-carboxamide], for which the pIC50 in series [1] was 6.29. In addition, in series [2], the Papp A→B amounted to 0.29 ×10⁻⁶ cm/s, the Papp B→A came to 19 ×10⁻⁶ cm/s and the efflux ratio was 65. In series [3], this molecule returned a microsomal CLint of 6.4 µL/min/mg. Moreover, the solubility in series [4] stood at 830 µM (≈ 363 µg/mL). Besides, in series [5], the “hFAP Binding assay k(off)” value stood at 0.000064 s⁻¹, the “hFAP Binding assay k(on)” value stood at 1900000 M⁻¹ s⁻¹ and the pKd is 10.42. Also, in series [6], the “rHep CLint” value is reported as less than 1 μL/min/1E6. The pIC50 in series [7] was 10.19.

Take `N#C[C@@H]1CSCN1C(=O)CNC(=O)c1ccnc2ccc(N3CCCCC3=O)cc12` [Example 14, (R)—N-(2-(4-Cyanothiazolidin-3-yl)-2-oxoethyl)-6-(2-oxopiperidin-1-yl)-quinoline-4-carboxamide]: the pIC50 in series [1] was 5.92. Besides, in series [2], the Papp A→B came out at 0.15 ×10⁻⁶ cm/s, the Papp B→A is 2.4 ×10⁻⁶ cm/s and the efflux ratio was found to be 16. Also, in series [3], the microsomal CLint was less than 3 µL/min/mg. In series [4], this molecule came in with a solubility of 830 µM (≈ 352 µg/mL). In addition, in series [5], the “hFAP Binding assay k(off)” value came to 0.000064 s⁻¹, the “hFAP Binding assay k(on)” value amounted to 1300000 M⁻¹ s⁻¹ and the pKd is 10.30. The “rHep CLint” value in series [6] was less than 1 μL/min/1E6. In series [7], the pIC50 is 10.10.

For the molecule `CC1(C)CCCN(c2ccc3nccc(C(=O)NCC(=O)N4CSC[C@H]4C#N)c3c2)C1=O` [Example 15, (R)—N-(2-(4-Cyanothiazolidin-3-yl)-2-oxoethyl)-6-(3,3-dimethyl-2-oxopiperidin-1-yl)quinoline-4-carboxamide], the pIC50 in series [1] was 5.68. Further, in series [2], the Papp A→B was 0.3 ×10⁻⁶ cm/s, the Papp B→A turned out to be 13 ×10⁻⁶ cm/s and the efflux ratio turned out to be 45. Besides, in series [3], the microsomal CLint was 43 µL/min/mg. The solubility in series [4] is 890 µM (≈ 402 µg/mL). Further, in series [5], the “hFAP Binding assay k(off)” value was 0.000046 s⁻¹, the “hFAP Binding assay k(on)” value amounted to 490000 M⁻¹ s⁻¹ and the pKd is 9.96. Besides, the “rHep CLint” value in series [6] is 11 μL/min/1E6. The molecule further showed a pIC50 in series [7] of 9.92.

As for `C[C@@]1(O)CCN(c2ccc3nccc(C(=O)NCC(=O)N4CSC[C@H]4C#N)c3c2)C1` [Example 167, N-(2-((R)-4-Cyanothiazolidin-3-yl)-2-oxoethyl)-6-((R)-3-hydroxy-3-methylpyrrolidin-1-yl)quinoline-4-carboxamide], the negative logarithm of the IC50 (pIC50) in series [1] is 6.00. Also, in series [2], the Papp A→B stood at 0.13 ×10⁻⁶ cm/s, the Papp B→A is 9.5 ×10⁻⁶ cm/s and the efflux ratio worked out at 74. In addition, the microsomal CLint in series [3] is less than 3 µL/min/mg. The molecule further returned a solubility in series [4] of 240 µM (≈ 102 µg/mL). In addition, in series [6], the “rHep CLint” value is recorded as less than 1 μL/min/1E6. The pIC50 in series [7] is 10.04.

For `N#C[C@@H]1CSCN1C(=O)CNC(=O)c1ccnc2ccc(N3CCC(=O)CC3)cc12` [Example 230, (R)—N-(2-(4-cyanothiazolidin-3-yl)-2-oxoethyl)-6-(4-oxopiperidin-1-yl)quinoline-4-carboxamide], the pIC50 in series [1] was 6.22. Further, in series [2], the Papp came out at 2 ×10⁻⁶ cm/s, the Papp A→B was found to be 34 ×10⁻⁶ cm/s and the Papp B→A worked out at 17 ×10⁻⁶ cm/s. The microsomal CLint in series [3] was less than 3 µL/min/mg. Besides, the solubility in series [4] was greater than 1000 µM. Further, the “rHep CLint” value in series [6] stood at 2.8 μL/min/1E6. Further, the pIC50 in series [7] was 10.11.

What is called pIC50 is the IC50 on a negative log10 scale, so that one unit is a factor of ten. Usually Papp A→B stands for the apparent permeability from the apical to the basolateral side of a cell layer. One may read the Papp B→A as the apparent permeability from the basolateral to the apical side of a cell layer. By efflux ratio is commonly meant the permeability from basolateral to apical divided by that in the opposite direction, in the common usage. As a reminder, the microsomal CLint is the capacity of the preparation to metabolise the compound, expressed as a volume cleared per time. A word on the solubility: it is how much of the substance goes into solution per volume. A lower solubility goes with a poorly soluble substance. What is called pKd is the negative decadic logarithm of the Kd, by convention in mol/L. A higher pKd goes with a small Kd. The Papp is the rate of passage across a membrane or cell layer, normalised by area and donor concentration.
